Experimental data as given in patent US8575145B2, “Triazolopyridine compounds as PIM kinase inhibitors” (Array BioPharma Inc., priority 2008, dated 2013).
pIC50: −log10 of the molar value. Structures can show the parent of a compound that is named as a salt. Where two headings read alike, the source gives them in different places.

Experiments:
[1] = target: GST-tagged recombinant full-length human PIM-2 (Homo sapiens (Human), UniProt Q9P1W9); test: PIM-2 Enzyme Assay; conditions: for pIC50: read-out: PIM-2 IC50
PIM-1 = PIM-1 (Homo sapiens (Human), UniProt P11309); test: PIM-1 Enzyme Assay; assay type: biochemical
Procedure: The amount of radiolabeled product is then measured by liquid scintillation counting. The final buffer conditions were as follows: 20 mM K^+MOPS, pH 7.4, 10 mM MgCl2, 0.005% Tween-20, 1 mM DTT. […] Incubations were carried out for 60 min at 22° C. and quenched with 75 μL of 200 mM H3PO4, filtered through a Whatman P81 plate and washed (1×200 μL and 5×100 μL ) with 200 mM H3PO4. Liquid scintillation cocktail (50 μL ) was then added per well, and the plate was counted for 30 s/well using a TopCount NXT.
One-μL aliquots of these were then transferred to the assay mixtures above to give a final concentration of DMSO of 2%. […] For each plate, percent of control (POC) values were calculated for each well. IC50's were estimated from the POC's using a standard 4-parameter logistic model. The IC50 is defined as the concentration of inhibitor at which the POC equals 50 for the fitted curve.

[2] = 4 μM ATP, […] PIM-2, dihydrochloride

PIM-1, sequence (P11309 whole entry, species assumed): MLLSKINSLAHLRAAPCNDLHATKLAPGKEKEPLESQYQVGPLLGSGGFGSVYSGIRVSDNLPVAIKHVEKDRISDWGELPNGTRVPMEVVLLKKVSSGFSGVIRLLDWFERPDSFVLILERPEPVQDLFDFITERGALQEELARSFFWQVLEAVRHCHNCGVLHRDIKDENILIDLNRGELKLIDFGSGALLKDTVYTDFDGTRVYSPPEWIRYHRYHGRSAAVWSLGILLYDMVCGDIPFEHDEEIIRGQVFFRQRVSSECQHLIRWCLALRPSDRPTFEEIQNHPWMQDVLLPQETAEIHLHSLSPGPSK
GST-tagged recombinant full-length human PIM-2, sequence (Q9P1W9 whole entry): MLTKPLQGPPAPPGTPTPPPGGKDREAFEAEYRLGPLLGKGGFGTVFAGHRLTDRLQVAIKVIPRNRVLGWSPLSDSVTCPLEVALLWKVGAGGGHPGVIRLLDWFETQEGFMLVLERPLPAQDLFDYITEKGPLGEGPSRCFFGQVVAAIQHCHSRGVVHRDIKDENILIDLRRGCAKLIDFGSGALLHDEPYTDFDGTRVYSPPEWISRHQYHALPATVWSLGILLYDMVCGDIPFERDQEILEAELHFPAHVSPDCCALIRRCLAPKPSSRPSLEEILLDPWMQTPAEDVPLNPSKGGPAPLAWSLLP

CC(C)C1(COc2cccc3ccc(-c4nnc5ccccn45)nc23)CCNCC1 [Example 70, 2-([1,2,4]triazolo[4,3-a]pyridin-3-yl)-8-((4-isopropylpiperidin-4-yl)methoxy)quinoline dihydrochloride]
pIC50 ([1]; 4 μM ATP, […] PIM-2): 7.17
pIC50 (PIM-1): 9.12

CC(C)(CN)COc1ccc(F)c2ccc(-c3nnc4ccccn34)nc12 [Example 43, 3-(2-([1,2,4]triazolo[4,3-a]pyridin-3-yl)-5-fluoroquinolin-8-yloxy)-2,2-dimethylpropan-1-amine]
pIC50 ([1]; 4 μM ATP, […] PIM-2): 5.00
pIC50 (PIM-1; 35 μM ATP, 0.25 nM PIM-1): 6.86

Fc1cc(OCC2(F)CCNCC2)c2nc(-c3nnc4ccccn34)ccc2c1 [Example 106, 2-([1,2,4]triazolo[4,3-a]pyridin-3-yl)-6-fluoro-8-((4-fluoropiperidin-4-yl)methoxy)quinoline dihydrochloride]
pIC50 ([1]; 4 μM ATP, […] PIM-2): 7.60
pIC50 (PIM-1; 35 μM ATP, 0.25 nM PIM-1): 9.30

Cc1ccn2c(-c3ccc4cccc(OCC(C)(C)CN)c4n3)nnc2c1 [Example 123, 2,2-dimethyl-3-(2-(7-methyl-[1,2,4]triazolo[4,3-a]pyridin-3-yl)quinolin-8-yloxy)propan-1-amine trihydrochloride]
pIC50 ([1]; 4 μM ATP, […] PIM-2): 6.81
pIC50 (PIM-1; 35 μM ATP, 0.25 nM PIM-1): 9.05

F[C@@H]1CNCC[C@@H]1Oc1cccc2ccc(-c3nnc4ccc(C5CC5)cn34)nc12 (relative stereo) [Example 80, 2-(6-cyclopropyl-[1,2,4]triazolo[4,3-a]pyridin-3-yl)-8-((cis)-3-fluoropiperidin-4-yloxy)quinoline dihydrochloride]
pIC50 ([1]; 4 μM ATP, […] PIM-2): 5.93
pIC50 (PIM-1; 35 μM ATP, 0.25 nM PIM-1): 8.70

CC(C)(CN)COc1cccc2ccc(-c3nnc4ccc(Br)cn34)nc12 [Example 63, 3-(2-(6-bromo-[1,2,4]triazolo[4,3-a]pyridin-3-yl)quinolin-8-yloxy)-2,2-dimethylpropan-1-amine dihydrochloride]
pIC50 [1]: 7.00
pIC50 (PIM-1): 9.19

COC1(COc2cccc3ccc(-c4nnc5ccccn45)nc23)CCCNCC1 (centres unmarked) [Example 117, 2-([1,2,4]triazolo[4,3-a]pyridin-3-yl)-8-((4-methoxyazepan-4-yl)methoxy)quinoline dihydrochloride]
pIC50 ([1]; 4 μM ATP, […] PIM-2): 7.04
pIC50 (PIM-1; 35 μM ATP, 0.25 nM PIM-1): 9.00

Fc1ccn2c(-c3ccc4cccc(OC5CCNCC5F)c4n3)nnc2c1 (stereo not drawn) [Example 60, cis-2-(7-fluoro-[1,2,4]triazolo[4,3-a]pyridin-3-yl)-8-3-fluoropiperidin-4-yloxy)quinoline]
pIC50 ([1]; 4 μM ATP, […] PIM-2): 5.75
pIC50 (PIM-1; 35 μM ATP, 0.25 nM PIM-1): 7.59

NCC(F)(F)COc1cccc2ccc(-c3nnc4ccccn34)nc12 [Example 41, 3-(2-([1,2,4]triazolo[4,3-a]pyridin-3-yl)quinolin-8-yloxy)-2,2-difluoropropan-1-amine]
pIC50 ([1]; 4 μM ATP, […] PIM-2): 6.74

OC1(COc2cccc3ccc(-c4nnc5ccccn45)nc23)CCCNCC1 (centres unmarked) [Example 116, 4-((2-([1,2,4]triazolo[4,3-a]pyridin-3-yl)quinolin-8-yloxy)methyl)azepan-4-ol bis-trifluoroacetate]
pIC50 [1]: 6.00
pIC50 (PIM-1; 35 μM ATP, 0.25 nM PIM-1): 7.93

N#Cc1ccc2nnc(-c3ccc4cccc(O[C@@H]5CCNCC[C@H]5F)c4n3)n2c1 (relative stereo) [Example 101, 3-(8-((trans)-5-fluoroazepan-4-yloxy)quinolin-2-yl)-[1,2,4]triazolo[4,3-a]pyridine-6-carbonitrile dihydrochloride]
pIC50 ([1]; 4 μM ATP, […] PIM-2): 6.00
pIC50 (PIM-1; 35 μM ATP, 0.25 nM PIM-1): 7.89

COC[C@@H]1CC(Oc2cccc3ccc(-c4nnc5ccccn45)nc23)CCN1 (some centres unmarked) [Example 57]
pIC50 ([1]; 4 μM ATP, […] PIM-2): 6.32
pIC50 (PIM-1; 35 μM ATP, 0.25 nM PIM-1): 8.40

COC1(COc2cc(F)cc3ccc(-c4nnc5ccccn45)nc23)CCCN(CCO)CC1 (centres unmarked) [Example 115, 2-(4-42-([1,2,4]triazolo[4,3-a]pyridin-3-yl)-6-fluoroquinolin-8-yloxy)methyl)-4-methoxyazepan-1-yl)ethanol dihydrochloride]
pIC50 ([1]; 4 μM ATP, […] PIM-2): 6.65
pIC50 (PIM-1; 35 μM ATP, 0.25 nM PIM-1): 8.85

CC(C)(CN)COc1cc(F)cc2ccc(-c3nnc4ccccn34)nc12 [Example 39, 3-(2-([1,2,4]triazolo[4,3-a]pyridin-3-yl)-6-fluoroquinolin-8-yloxy)-2,2-dimethylpropan-1-amine]
pIC50 ([1]; 4 μM ATP, […] PIM-2): 7.59
pIC50 (PIM-1; 35 μM ATP, 0.25 nM PIM-1): 9.26

N[C@H]1CC[C@@H](Oc2cccc3ccc(-c4nnc5ccccn45)nc23)CC1 [Example 42, (cis)-4-(2-([1,2,4]triazolo[4,3-a]pyridin-3-yl)quinolin-8-yloxy)cyclohexanamine]
IC50 ([1]; PIM-2 IC50 (nM), 4 μM ATP, […] PIM-2): 22 nM

CN1CCC(F)C(Oc2cccc3ccc(-c4nnc5ccccn45)nc23)CC1 (centres unmarked) [Example 119]
pIC50 ([1]; 4 μM ATP, […] PIM-2): 6.24
pIC50 (PIM-1; 35 μM ATP, 0.25 nM PIM-1): 8.89

COc1ccc2nnc(-c3ccc4cc(F)cc(OCC5(F)CCNCC5)c4n3)n2c1 [Example 110, 6-fluoro-8-((4-fluoropiperidin-4-yl)methoxy)-2-(6-methoxy-[1,2,4]triazolo[4,3-a]pyridin-3-yl)quinoline dihydrochloride]
pIC50 ([1]; 4 μM ATP, […] PIM-2): 6.79
pIC50 (PIM-1; 35 μM ATP, 0.25 nM PIM-1): 8.72

FC1CNCCC1Oc1cccc2ccc(-c3nnc4ccccn34)nc12 (single isomer, unassigned) [Example 97, 2-([1,2,4]triazolo[4,3-a]pyridin-3-yl)-8-((trans)-3-fluoropiperidin-4-yloxy)quinoline dihydrochloride]
pIC50 [1, 2]: 6.00
pIC50 (PIM-1; dihydrochloride): 7.31

CN1CCC(F)(COc2cccc3ccc(-c4nnc5ccccn45)nc23)CC1 [Example 84, 2-([1,2,4]triazolo[4,3-a]pyridin-3-yl)-8-((4-fluoro-1-methylpiperidin-4-yl)methoxy)quinoline dihydrochloride]
pIC50 ([1]; 4 μM ATP, […] PIM-2): 7.14
pIC50 (PIM-1): 8.70

Fc1cc(OCC2(F)CNC2)c2nc(-c3nnc4ccccn34)ccc2c1 [Example 108, 2-([1,2,4]triazolo[4,3-a]pyridin-3-yl)-6-fluoro-8-((3-fluoroazetidin-3-yl)methoxy)quinoline Dihydrochloride]
pIC50 ([1]; 4 μM ATP, […] PIM-2): 6.31
pIC50 (PIM-1): 8.14

CC(C)(CNC(=O)CF)COc1cccc2ccc(-c3nnc4ccccn34)nc12 [Example 134, N-(3-(2-([1,2,4]triazolo[4,3-a]pyridin-3-yl)quinolin-8-yloxy)-2,2-dimethylpropyl)-2-fluoroacetamide]
pIC50 ([1]; 4 μM ATP, […] PIM-2): 6.02
pIC50 (PIM-1; 35 μM ATP, 0.25 nM PIM-1): 8.00

F[C@@H]1CNCC[C@@H]1Oc1cccc2ccc(-c3nnc4ccc(Br)cn34)nc12 (relative stereo) [Example 78, 2-(6-bromo-[1,2,4]triazolo[4,3-a]pyridin-3-yl)-8-((cis)-3-fluoropiperidin-4-yloxy)quinoline dihydrochloride]
pIC50 [1]: 5.89
pIC50 (PIM-1; 35 μM ATP, 0.25 nM PIM-1): 8.10

CC(C)(CN)COc1c(Br)ccc2ccc(-c3nnc4ccccn34)nc12 [Example 58, 3-(2-([1,2,4]triazolo[4,3-a]pyridin-3-yl)-7-bromoquinolin-8-yloxy)-2,2-dimethylpropan-1-amine dihydrochloride]
pIC50 ([1]; 4 μM ATP, […] PIM-2): 6.69
pIC50 (PIM-1): 8.00

FC1(COc2cccc3ccc(-c4nnc5ccc(C6CC6)cn45)nc23)CCNCC1 [Example 79, 2-(6-cyclopropyl-[1,2,4]triazolo[4,3-a]pyridin-3-yl)-8-((4-fluoropiperidin-4-yl)methoxy)quinoline dihydrochloride]
pIC50 ([1]; 4 μM ATP, […] PIM-2): 7.26
pIC50 (PIM-1; 35 μM ATP, 0.25 nM PIM-1): 9.70

Fc1ccc2nnc(-c3ccc4cccc(OCC5(F)CCNCC5)c4n3)n2c1 [Example 103, 2-(6-fluoro-[1,2,4]triazolo[4,3-a]pyridin-3-yl)-8-((4-fluoropiperidin-4-yl)methoxy)quinoline dihydrochloride]
pIC50 [1]: 7.18
pIC50 (PIM-1; 35 μM ATP, 0.25 nM PIM-1): 8.85

NCC1(COc2cccc3ccc(-c4nnc5ccccn45)nc23)CCCC1 [Example 129, (1-((2-([1,2,4]triazolo[4,3-a]pyridin-3-yl)quinolin-8-yloxy)methyl)cyclopentyl)methanamine]
pIC50 ([1]; 4 μM ATP, […] PIM-2): 6.00
pIC50 (PIM-1; 35 μM ATP, 0.25 nM PIM-1): 8.31

c1cc(OCc2ccncc2)c2nc(-c3nnc4ccccn34)ccc2c1 [Example 45, 2-([1,2,4]triazolo[4,3-a]pyridin-3-yl)-8-(pyridin-4-ylmethoxy)quinoline]
pIC50 ([1]; 4 μM ATP, […] PIM-2): 5.76
pIC50 (PIM-1; 35 μM ATP, 0.25 nM PIM-1): 7.57

FC1CNCCC1Oc1cccc2ccc(-c3nnc4ccccn34)nc12 (single isomer, unassigned) [Example 95, 2-([1,2,4]triazolo[4,3-a]pyridin-3-yl)-8-((cis)-3-fluoropiperidin-4-yloxy)quinoline dihydrochloride]
pIC50 [1, 2]: 6.32
pIC50 (PIM-1; dihydrochloride): 8.01

CC(C)(C)COc1cccc2ccc(-c3nnc4ccccn34)nc12 [Example 23, 2-([1,2,4]triazolo[4,3-a]pyridin-3-yl)-8-(neopentyloxy)quinoline]
pIC50 ([1]; 4 μM ATP, […] PIM-2): 6.84

CN(C)CC(C)(C)COc1cccc2ccc(-c3nnc4ccccn34)nc12 [Example 21, 3-(2-([1,2,4]triazolo[4,3-a]pyridin-3-yl)quinolin-8-yloxy)-N,N,2,2-tetramethylpropan-1-amine]
pIC50 ([1]; 4 μM ATP, […] PIM-2): 5.87

CC(C)(CCN)COc1cccc2ccc(-c3nnc4ccccn34)nc12 [Example 132, 4-(2-([1,2,4]triazolo[4,3-a]pyridin-3-yl)quinolin-8-yloxy)-3,3-dimethylbutan-1-amine]
pIC50 ([1]; 4 μM ATP, […] PIM-2): 7.12

CC(C)(CNCC(F)(F)F)COc1cccc2ccc(-c3nnc4ccccn34)nc12 [Example 136, 3-(2-([1,2,4]triazolo[4,3-a]pyridin-3-yl)quinolin-8-yloxy)-2,2-dimethyl-N-(2,2,2-trifluoroethyl)propan-1-amine]
pIC50 ([1]; 4 μM ATP, […] PIM-2): 6.44

CCC(CC)(CO)COc1cccc2ccc(-c3nnc4ccccn34)nc12 [Example 131]
pIC50 ([1]; 4 μM ATP, […] PIM-2): 6.00
